This is an account of results in publication PMC2637266, “Quantification of gamma-secretase modulation differentiates inhibitor compound selectivity between two substrates Notch and amyloid precursor protein” (Molecular Brain, 2008).

The target of one assay is γ-secretase. Particulars: read-out: IC50 for de novo Aβ and AICD generation in vitro; cited from earlier work.
The subject of assay [1] is γ-secretase, NICD generation. Also on record: method as in PMID 16236717. Conditions: 50 nM; cited from earlier work.
For assay [2], the system named is γ-secretase, AICD generation. On the set-up: method as in PMID 16236717. Particulars: 100 nM; cited from earlier work.
A further assay relates to zebrafish embryos. On the set-up: method as in PMID 12101103. Conditions: treatment at late blastula stage; cited from earlier work.
Assay [3] addresses T1, γ-secretase cleavage of APP (Homo sapiens, UniProt P49768).
T1 construct: endogenous in cells; host or cells: HEK293 stably expressing Swedish mutant human APP695, transiently transfected with NotchΔE
The assay can be described thus: Aβ ELISA from HEK293 cells transiently transfected with APP. The class given is cell-based. From the text: (§1) Two cDNA constructs expressing chimeric APP and Notch were previously reported to generate chimeric "Notch-Aβ-like" (Nβ*) peptide. One construct has its transmembrane domain (TMD) replaced by the Notch TMD (APP-m-NOTCH) and the other with the juxtamembrane portion of the APP ectodomain (the α-secretase cleavage region) replaced by the corresponding sequence in Notch (APP-α-NOTCH). Taking advantage of different combinations of ELISA antibodies (see Methods), effects of cpd E on the generation of Aβ and Nβ* peptides from these chimeric APP-Notch substrates were quantified by ELISA.
(§2) Individual construct APP, APP-α-Notch or APP-m-Notch was transiently transfected into HEK293 cells. These chimeric protein expressing cells were treated with cpd E, and the levels of Aβ and Nβ* were measured by ELISA. […] Similar results were obtained when m-Notch was expressed in HEK293 cells. At least two magnitude of difference was observed, with EC50 for cpd E was […], compared to EC50 for Nβ* at ~1 nM (Fig. 3B).
(§3) Figure 3 Generation of Aβ and Nβ* from chimeric APP-Notch expressing cells. […] Levels of Nβ* in the media from cells expressing APP-α-Notch (dotted line) and levels of Aβ from APP expressing cells (solid line) were determined by ELISA. […] Levels of Aβ (solid line) and Nβ* (dotted line) were determined by ELISA. […]

Assay [4] deals with T2, γ-secretase cleavage of chimeric APP-α-NOTCH (Homo sapiens, UniProt P49768).
T2 construct: endogenous in cells; host or cells: HEK293 transiently transfected with APP-α-Notch
Kind of assay: Nβ* ELISA from HEK293 cells expressing APP-α-Notch. The class given is cell-based.
Source text: as §1, §2, §3

For assay [5], the target named is T3, γ-secretase cleavage of chimeric APP-m-NOTCH (Homo sapiens, UniProt P49768).
T3 construct: endogenous in cells; host or cells: HEK293 transiently transfected with APP-m-Notch
Kind of assay: Nβ* ELISA from HEK293 cells expressing APP-m-Notch. The class given is cell-based.
Source text: as §1, §2, §3

A further assay has as its system NICD generation. On the set-up: method as in PMID 15319485. Particulars: found as low as; read-out: IC50 for NICD generation in cultured cells; cited from earlier work.
The subject of assay [6] is brain cortical γ-secretase. On the set-up: method as in PMID 15857627. Particulars: guinea pig; cited from earlier work.

Like-named read-outs stand apart in the source and are kept apart here.

On to `C[C@H](NC(=O)Cc1cc(F)cc(F)c1)C(=O)N[C@H](C(=O)OC(C)(C)C)c1ccccc1` [DAPT, N-[N-(3,5-Difluorophenacetyl-L-alanyl)]-S-phenylglycine t-Butyl Ester], for which, at γ-secretase, the IC50 was 10 to 100 nM. For the same molecule, the “inhibition of NICD generation in vitro” value in assay [1] is “partial inhibition”. Besides, the “inhibition of AICD generation in vitro” value in [2] is “partial inhibition”. The “zebrafish somitogenesis and neurogenesis” value in the assay with zebrafish embryos is “caused defects in somitogenesis and neurogenesis”.

On to `C[C@H](NC(=O)Cc1cc(F)cc(F)c1)C(=O)N[C@H]1N=C(c2ccccc2)c2ccccc2N(C)C1=O` [cpd E, (S,S)-2-[2-(3,5-Difluorophenyl)-acetylamino]-N-(1-methyl-2-oxo-5-phenyl-2,3-dihydro-1H-benzo [e] [1,4]diazepin-3-yl)-propionamide], for which the EC50 in [3] (EC for inhibiting 50% of Aβ production, APP expressing HEK293, α-Notch experiment, Fig. 3A) was less than 0.1 nM; in assay [3] (HEK293, m-Notch experiment, Fig. 3B, read-out: EC50 for APP (Aβ)) it was roughly 0.03 nM; in assay [4], roughly 8 nM; in assay [5], roughly 1 nM. The IC50 in the assay with NICD generation was 1.7 nM. Also, the “brain cortical γ-secretase activity” value in [6] is given as “dose-dependent inhibition of brain cortical γ-secretase activity”. In addition, the “plasma, CSF and brain Aβ levels” value in assay [6] was “decreases in plasma, CSF and brain Aβ levels”.

Broadly, the EC50 is the concentration that produces a half-maximal response.
